From US9586949B2, “Aza-heteroaryl compounds as PI3K-gamma inhibitors” (Incyte Corporation, priority 2015, dated 2017)

How the values were obtained:
[1] = target: PI3Kγ (p110γ) Recombinant Human Protein (Homo sapiens (Human), UniProt P48736); assay: PI3K-γ Scintillation Proximity Assay; format: biochemical; settings: 20 μM PIP2, 2 μM ATP, 13 nM PI3Kγ, 120 min; read-out: PI3K-gamma SPA IC50
Description: [γ-^33P]ATP (10 mCi/mL) and Wheat Germ Agglutinin (WGA) YSi SPA Scintillation Beads was purchased from Perkin-Elmer (Waltham, Mass.). […] PI3Kγ (p110γ) Recombinant Human Protein was purchased from Life technology (Grand Island, N.Y.). ATP, MgCl2, DTT, EDTA, MOPS and CHAPS were purchased from Sigma-Aldrich (St. Louis, Mo.).
The kinase reaction was conducted in polystyrene 384-well Greiner Bio-one white plate from Thermo Fisher Scientific in a final volume of 25 μL. Inhibitors were first diluted serially in DMSO and added to the plate wells before the addition of other reaction components. The final concentration of DMSO in the assay was 2%. The PI3Kγ assay was carried out at room temperature in 20 mM MOPS, pH 6.7, 10 mM MgCl2, 5 mM DTT and CHAPS 0.03%. Reactions were initiated by the addition of ATP, the final reaction mixture consisted of 20 μM PIP2, 2 μM ATP, 0.5 μCi [γ-^33P] […] The final concentration of SPA beads is 1.0 mg/mL. After the plate sealing, plates were shaken overnight at room temperature and centrifuged at 1500 rpm for 10 min, the radioactivity of the product was determined by scintillation counting on Topcount (Perkin-Elmer). IC50 determination was performed by fitting the curve of percent of the solvent control activity versus the log of the inhibitor concentration using the GraphPad Prism 6.0 software.

[2] = target: PI3Kδ (p110δ/p85α) Recombinant Human Protein (Homo sapiens (Human), UniProt O00329); assay: PI3Kδ Scintillation Proximity Assay; format: biochemical; settings: 20 μM PIP2, 2 μM ATP, 3.4 nM PI3Kδ, 120 min; read-out: PI3K-delta SPA IC50
Chain of PI3Kδ (p110δ/p85α) Recombinant Human Protein (O00329 whole entry): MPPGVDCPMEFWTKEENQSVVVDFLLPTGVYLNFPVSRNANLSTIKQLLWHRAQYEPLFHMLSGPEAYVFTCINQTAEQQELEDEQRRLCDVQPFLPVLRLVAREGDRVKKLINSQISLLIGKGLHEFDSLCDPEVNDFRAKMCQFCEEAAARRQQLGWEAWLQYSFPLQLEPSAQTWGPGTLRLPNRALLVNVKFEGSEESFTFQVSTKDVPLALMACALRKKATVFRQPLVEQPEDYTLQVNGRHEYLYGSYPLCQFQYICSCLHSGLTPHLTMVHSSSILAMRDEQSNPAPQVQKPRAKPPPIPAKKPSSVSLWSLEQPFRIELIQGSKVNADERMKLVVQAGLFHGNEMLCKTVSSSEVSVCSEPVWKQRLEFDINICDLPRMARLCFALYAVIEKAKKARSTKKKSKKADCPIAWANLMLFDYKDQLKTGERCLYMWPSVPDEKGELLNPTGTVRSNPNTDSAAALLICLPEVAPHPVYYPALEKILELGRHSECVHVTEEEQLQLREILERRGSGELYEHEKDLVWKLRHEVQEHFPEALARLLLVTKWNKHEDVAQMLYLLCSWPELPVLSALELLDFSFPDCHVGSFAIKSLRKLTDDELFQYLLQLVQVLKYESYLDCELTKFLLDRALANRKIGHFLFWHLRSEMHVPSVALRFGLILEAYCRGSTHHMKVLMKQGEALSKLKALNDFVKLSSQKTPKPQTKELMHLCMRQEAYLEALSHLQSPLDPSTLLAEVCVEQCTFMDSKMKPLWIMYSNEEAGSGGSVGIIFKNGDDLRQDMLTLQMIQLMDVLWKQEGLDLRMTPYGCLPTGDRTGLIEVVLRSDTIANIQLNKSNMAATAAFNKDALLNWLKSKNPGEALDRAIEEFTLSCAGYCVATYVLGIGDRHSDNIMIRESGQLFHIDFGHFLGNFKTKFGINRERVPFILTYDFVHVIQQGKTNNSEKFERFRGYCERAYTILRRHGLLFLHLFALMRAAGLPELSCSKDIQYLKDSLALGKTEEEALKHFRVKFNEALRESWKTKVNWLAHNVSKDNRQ
Chain of PI3Kδ (p110δ/p85α) Recombinant Human Protein (P27986 whole entry partner): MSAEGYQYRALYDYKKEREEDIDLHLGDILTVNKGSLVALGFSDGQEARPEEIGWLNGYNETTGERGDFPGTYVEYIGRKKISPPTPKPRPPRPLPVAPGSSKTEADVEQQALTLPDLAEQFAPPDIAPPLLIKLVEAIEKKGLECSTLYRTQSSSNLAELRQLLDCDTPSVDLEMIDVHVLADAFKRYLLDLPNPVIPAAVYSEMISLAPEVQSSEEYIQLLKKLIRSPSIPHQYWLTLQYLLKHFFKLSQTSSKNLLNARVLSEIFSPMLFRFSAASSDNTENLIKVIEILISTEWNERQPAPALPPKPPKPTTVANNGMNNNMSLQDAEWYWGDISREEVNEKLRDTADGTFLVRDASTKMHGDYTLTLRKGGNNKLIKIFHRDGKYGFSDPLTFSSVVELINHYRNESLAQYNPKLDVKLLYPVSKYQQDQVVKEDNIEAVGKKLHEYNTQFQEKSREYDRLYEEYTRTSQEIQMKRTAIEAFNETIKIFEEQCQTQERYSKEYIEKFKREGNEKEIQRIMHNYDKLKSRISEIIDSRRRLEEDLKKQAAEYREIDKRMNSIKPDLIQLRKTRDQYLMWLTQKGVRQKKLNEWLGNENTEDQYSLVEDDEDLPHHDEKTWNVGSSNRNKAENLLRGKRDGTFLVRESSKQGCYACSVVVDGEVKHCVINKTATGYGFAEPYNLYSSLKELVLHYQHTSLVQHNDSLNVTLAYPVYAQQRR
Excerpt: [γ-^33P]ATP (10 mCi/mL) and Wheat Germ Agglutinin (WGA) YSi SPA Scintillation Beads was purchased from Perkin-Elmer (Waltham, Mass.). Lipid kinase substrate, D-myo-Phosphatidylinositol 4,5-bisphosphate (PtdIns(4,5)P2)D (+)-sn-1,2-di-O-octanoylglyceryl, 3-O-phospho linked (PIP2), CAS 204858-53-7, was purchased from Echelon Biosciences (Salt Lake City, Utah). PI3Kδ (p110δ/p85α) Recombinant Human Protein was purchased from Eurofins (St Charles, Mo.). ATP, MgCl2, DTT, EDTA, MOPS and CHAPS were purchased from Sigma-Aldrich (St. Louis, Mo.).
The kinase reaction was conducted in polystyrene 384-well Greiner Bio-one white plate from Thermo Fisher Scientific in a final volume of 25 μL. Inhibitors were first diluted serially in DMSO and added to the plate wells before the addition of other reaction components. The final concentration of DMSO in the assay was 2%. The PI3Kδ assay was carried out at room temperature in 20 mM MOPS, pH 6.7, 10 mM MgCl2, 5 mM DTT and CHAPS 0.03%. Reactions were initiated by the addition of ATP, the final reaction mixture consisted of 20 μM PIP2, 2 μM ATP, 0.5 μCi [γ-^33P] ATP, 3.4 nM PI3Kδ. Reactions were incubated for 120 min and terminated by the addition of 40 μL SPA beads suspended in quench buffer: 163 mM potassium phosphate pH 7.8, 20% glycerol, 25 mM EDTA. The final concentration of SPA beads is 1.0 mg/mL. After the plate sealing, plates were shaken overnight at room temperature and centrifuged at 1500 rpm for 10 min, the radioactivity of the product was determined by scintillation counting on Topcount (Perkin-Elmer). IC50 determination was performed by fitting the curve of percent of the solvent control activity versus the log of the inhibitor concentration using the GraphPad Prism 6.0 software.

Chain of PI3Kγ (p110γ) Recombinant Human Protein (P48736 whole entry): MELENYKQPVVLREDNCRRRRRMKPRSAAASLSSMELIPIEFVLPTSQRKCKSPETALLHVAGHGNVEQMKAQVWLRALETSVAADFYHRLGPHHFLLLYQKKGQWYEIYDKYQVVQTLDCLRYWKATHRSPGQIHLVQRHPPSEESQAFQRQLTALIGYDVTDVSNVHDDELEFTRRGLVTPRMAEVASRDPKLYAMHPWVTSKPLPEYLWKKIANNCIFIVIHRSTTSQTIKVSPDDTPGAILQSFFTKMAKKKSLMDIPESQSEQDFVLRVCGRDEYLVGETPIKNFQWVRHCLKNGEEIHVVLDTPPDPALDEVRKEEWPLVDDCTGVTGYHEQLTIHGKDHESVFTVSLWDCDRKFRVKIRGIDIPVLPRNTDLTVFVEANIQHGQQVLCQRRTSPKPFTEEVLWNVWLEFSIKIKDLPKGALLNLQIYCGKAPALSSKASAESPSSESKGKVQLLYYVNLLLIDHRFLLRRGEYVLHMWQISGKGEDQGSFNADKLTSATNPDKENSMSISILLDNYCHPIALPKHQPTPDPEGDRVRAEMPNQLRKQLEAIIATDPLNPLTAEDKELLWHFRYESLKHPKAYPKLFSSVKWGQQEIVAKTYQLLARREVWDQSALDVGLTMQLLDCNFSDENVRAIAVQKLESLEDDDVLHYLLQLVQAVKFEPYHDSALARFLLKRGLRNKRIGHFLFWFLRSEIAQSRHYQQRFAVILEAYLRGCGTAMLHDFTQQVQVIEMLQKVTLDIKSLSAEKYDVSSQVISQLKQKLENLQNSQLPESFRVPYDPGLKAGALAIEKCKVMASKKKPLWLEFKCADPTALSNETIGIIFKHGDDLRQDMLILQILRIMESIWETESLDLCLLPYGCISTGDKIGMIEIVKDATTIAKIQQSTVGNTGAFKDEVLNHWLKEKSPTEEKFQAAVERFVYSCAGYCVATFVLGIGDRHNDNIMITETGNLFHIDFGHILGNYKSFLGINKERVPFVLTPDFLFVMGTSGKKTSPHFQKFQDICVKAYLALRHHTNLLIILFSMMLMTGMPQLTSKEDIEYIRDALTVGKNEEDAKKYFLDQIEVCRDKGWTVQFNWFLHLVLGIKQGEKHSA

Row | Compound | IC50 [1] | IC50 [2]
1 | CCNS(=O)(=O)c1cncc(-c2ccc3nc(-c4nc5ccccc5[nH]4)oc3c2)c1 [Example 59, 5-[2-(1H-Benzimidazol-2-yl)-1,3-benzoxazol-6-yl]-N-ethylpyridine-3-sulfonamide bis(trifluoroacetate)] | < 250 nM | ≥ 5000 nM
2 | CCS(=O)(=O)Nc1cc(-c2ccc3nc(-c4nc5ccccc5[nH]4)oc3c2)ccc1F [Example 60, N-{5-[2-(1H-Benzimidazol-2-yl)-1,3-benzoxazol-6-yl]-2-fluorophenyl}ethanesulfonamide] | < 250 nM | ≥ 5000 nM
3 | OC(c1cncc(-c2ccc3nc(-c4ncc[nH]4)oc3c2)c1)C(F)(F)F (centres unmarked) [Example 61, 1-(5-(2-(1H-Imidazol-2-yl)benzo[d]oxazol-6-yl)pyridin-3-yl)-2,2,2-trifluoroethanol bis(trifluoroacetate)] | < 250 nM | < 250 nM
4 | Cc1nc(-c2nc3ccc(-c4cncc(S(C)(=O)=O)c4)cc3o2)[nH]c1C [Example 62, 2-(4,5-Dimethyl-1H-imidazol-2-yl)-6-(5-(methylsulfonyl)pyridin-3-yl)benzo[d]oxazole bis(trifluoroacetate)] | < 1000 nM | < 5000 nM
5 | CCS(=O)(=O)Nc1cncc(-c2ccc3nc(-c4nc(C)c(C)[nH]4)oc3c2)c1 [Example 63, N-(5-(2-(4,5-Dimethyl-1H-imidazol-2-yl)benzo[d]oxazol-6-yl)pyridin-3-yl)ethanesulfonamide bis(trifluoroacetate)] | < 250 nM | < 1000 nM
6 | CCCc1nc(-c2nc3ccc(-c4cncc(NS(=O)(=O)CC)c4)cc3o2)[nH]c1C [Example 64, N-(5-(2-(5-Methyl-4-propyl-1H-imidazol-2-yl)benzo[d]oxazol-6-yl)pyridin-3-yl)ethanesulfonamide bis(trifluoroacetate)] | < 250 nM | < 250 nM
7 | CCS(=O)(=O)Nc1cc(-c2ccc3nc(-c4nc(C)c(C)[nH]4)oc3c2)cnc1OC [Example 65, N-(5-(2-(4,5-Dimethyl-1H-imidazol-2-yl)benzo[d]oxazol-6-yl)-2-methoxypyridin-3-yl)ethanesulfonamide bis(trifluoroacetate)] | < 250 nM | < 250 nM
8 | CCS(=O)(=O)Nc1cc(-c2ccc3nc(-c4nc5c([nH]4)CCCC5)oc3c2)cnc1OC [Example 66, N-(2-Methoxy-5-(2-(4,5,6,7-tetrahydro-1H-benzo[d]imidazol-2-yl)benzo[d]oxazol-6-yl)pyridin-3-yl)ethanesulfonamide] | < 250 nM | < 250 nM
9 | Cc1nc(-c2nc3ccc(-c4cncc(C(O)C(F)(F)F)c4)cc3o2)[nH]c1C (centres unmarked) [Example 67, 1-(5-(2-(4,5-Dimethyl-1H-imidazol-2-yl)benzo[d]oxazol-6-yl)pyridin-3-yl)-2,2,2-trifluoroethanol bis(trifluoroacetate)] | < 250 nM | < 250 nM
10 | OC(c1cncc(-c2ccc3nc(-c4nc5c([nH]4)CCCC5)oc3c2)c1)C(F)(F)F (centres unmarked) [Example 68, 2,2,2-Trifluoro-1-(5-(2-(4,5,6,7-tetrahydro-1H-benzo[d]imidazol-2-yl)benzo[d]oxazol-6-yl)pyridin-3-yl)ethanol] | < 250 nM | < 250 nM
11 | COc1cc(-c2ccc3nc(-c4nc5ccccc5[nH]4)oc3c2)cnc1F [Example 69, 2-(1H-Benzo[d]imidazol-2-yl)-6-(6-fluoro-5-methoxypyridin-3-yl)benzo[d]oxazole bis(trifluoroacetate)] | < 250 nM | ≥ 5000 nM
12 | Fc1ncc(-c2ccc3nc(-c4nc5ccccc5[nH]4)oc3c2)cn1 [Example 70, 2-(1H-Benzo[d]imidazol-2-yl)-6-(2-fluoro-pyrimidin-5-yl)benzo[d] oxazole bis(trifluoroacetate)] | < 1000 nM | ≥ 5000 nM
13 | O=C(O)Cc1cncc(-c2ccc3nc(-c4nc5ccccc5[nH]4)oc3c2)c1 [Example 71, 2-(5-(2-(1H-Benzo [d]imidazol-2-yl)benzo[d]oxazol-6-yl)pyridin-3-yl)acetic acid] | < 1000 nM | < 5000 nM
14 | CP(C)(=O)c1cncc(-c2ccc3nc(-c4nc5ccccc5[nH]4)oc3c2)c1 [Example 72, 2-(1H-Benzo[d]imidazol-2-yl)-6-(5-(dimethyl-phosphoryl)pyridin-3-yl)benzo[d]oxazole bis(trifluoroacetate)] | < 250 nM | < 5000 nM
15 | CCS(=O)(=O)N(C)c1cncc(-c2ccc3nc(-c4nc5ccccc5[nH]4)oc3c2)c1 [Example 73, N-(5-(2-(1H-Benzo [d]imidazol-2-yl)benzo [d]oxazol-6-yl)pyridin-3-yl)-N-methylethanesulfonamide bis(trifluoroacetate)] | < 250 nM | < 5000 nM
16 | OC(c1cncc(-c2ccc3nc(-c4nc5ccccc5[nH]4)oc3c2)c1)C(F)(F)F (centres unmarked) [Example 74, 1-(5-(2-(1H-Benzo [d]imidazol-2-yl)benzo [d]oxazol-6-yl)pyridin-3-yl)-2,2,2-trifluoroethanol bis(trifluoroacetate)] | < 250 nM | < 250 nM
17 | O=S(=O)(CC(F)(F)F)Nc1cc(-c2ccc3nc(-c4nc5ccccc5[nH]4)oc3c2)cnc1F [Example 75, N-(5-(2-(1H-Benzo [d]imidazol-2-yl)benzo[d]oxazol-6-yl)-2-fluoropyridin-3-yl)-2,2,2-trifluoro-ethanesulfonamide bis(trifluoroacetate)] | < 250 nM | < 250 nM
18 | Cc1ncc(-c2ccc3nc(-c4nc5ccccc5[nH]4)oc3c2)cc1NS(=O)(=O)CC(F)(F)F [Example 76, N-(5-(2-(1H-Benzo [d]imidazol-2-yl)benzo[d]oxazol-6-yl)-2-methylpyridin-3-yl)-2,2,2-trifluoro-ethanesulfonamide bis(trifluoroacetate)] | < 250 nM | < 250 nM
19 | O=S(=O)(CC(F)(F)F)Nc1cncc(-c2ccc3nc(-c4nc5ccccc5[nH]4)oc3c2)c1 [Example 77, N-(5-(2-(1H-Benzo [d]imidazol-2-yl)benzo[d]oxazol-6-yl)pyridin-3-yl)-2,2,2-trifluoro-ethanesulfonamide bis(trifluoroacetate)] | < 250 nM | < 1000 nM
20 | CCS(=O)(=O)Nc1cc(-c2ccc3nc(-c4nc5ccccc5[nH]4)oc3c2)ncc1F [Example 78, N-(2-(2-(1H-Benzo [d]imidazol-2-yl)benzo[d]oxazol-6-yl)-5-fluoropyridin-4-yl) ethanesulfonamide bis(trifluoroacetate)] | < 5000 nM | < 5000 nM
21 | CCS(=O)(=O)Nc1cc(-c2ccc3nc(-c4nc5ccccc5[nH]4)oc3c2)cnc1OC [Example 79, N-(5-(2-(1H-Benzo [d]imidazol-2-yl)benzo[d]oxazol-6-yl)-2-methoxypyridin-3-yl)ethanesulfonamide bis(trifluoroacetate)] | < 250 nM | < 250 nM
22 | CCS(=O)(=O)Nc1cc(-c2ccc3nc(-c4nc5ccccc5[nH]4)oc3c2)cc(F)c1OC [Example 80, N-(5-(2-(1H-Benzo [d]imidazol-2-yl)benzo[d]oxazol-6-yl)-3-fluoro-2-methoxyphenyl) ethanesulfonamide bis(trifluoroacetate)] | < 250 nM | < 5000 nM
